This note sets out measurements from patent US12102658B2, “Tripeptide propylene oxide derivative and preparation method and application thereof” (SHENZHEN JIKANG PHARMACEUTICAL TECHNOLOGY CO., LTD, priority 2019, dated 2024).

Read-outs that look alike come from different tables or passages of the source.

As usually defined, the melting point is the temperature of the solid-liquid transition.

For one data set, the system named is U266B1. In words: Cell strain inhibition activity (Promega single solution cell proliferation test kit), U266. It is filed as cell-based. As to conditions: Homo sapiens, U-266; U266B1 cells, 24 h incubation with drug; read-out: IC50 concentration (nM) of the drugs to cytotoxicity, U266B1. As to the method: (§1) The test solution used in the present invention is a single solution cell proliferation test kit from Promega company; and the cells used are U266 and RPMI8226. The experimental system is 110 μL, containing 90 μL of cell suspension, 10 μL of test solution, and 10 μL of drug (inhibitor). The final concentration is 4.54×10^−8 M-1.77×10^−9 M, the last concentration is 0 M, the actual preparation concentration is 5×10^−7 M-1.95×10^−8 M, and the last concentration is 0 M. The specific experiment process is as follows:
(§2) After the cells are counted separately, dilution and preparation are performed so that the number of U266 is 1×10^4 cells/well, and the number of RPMI8226 is 1×10^4 cells/well.
(§3) 90 μL of cell suspension is added to each well of a 96-well fluorescence microplate, and incubated for 24 h. […] After the reaction is complete, 10 μL of test solution is added to each well and incubation is performed for 2-3 h. The absorbance is tested with a 490 nm fluorescence microplate reader (BMG LABTECH POLARstar OPTIMA Microplate Reader).
(§4) The absorbances of the products obtained under the action of the drugs of different concentrations after subtracting the substrate are calculated. The IC50 concentration (nM) of the drugs to cytotoxicity is calculated by the GraphPad Prism software.

The target of data set [1] is T1, human red blood cell 20S proteasome (Homo sapiens, UniProt P28074).
T1 construct: human red blood cell 20S proteasome; purchased Enzo; host or cells: purified from human red blood cells
In words: Proteasome inhibition activity (chymotrypsin-like activity, Suc-LLVY-AMC fluorescent substrate). It is filed as biochemical. The conditions noted are these: Suc-LLVY-AMC 50 μM, 37° C.
Experimental: The present invention uses a fluorescent polypeptide substrate Suc-Leu-Leu-Val-Tyr-AMC (abbreviated as Suc-LLVY-AMC, Suc stands for succinyl group, AMC stands for 7-amide-4-methylcoumarin) to determine the chymotrypsin-like enzyme activity of the proteasome.
The proteasome used in the present invention is human red blood cell 20S proteasome, and the enzymes, fluorescent substrates and test buffers are all purchased from Enzo company. […]
The 20S proteasome is diluted with a buffer solution to a concentration of 2 ng/μL from 8 ng/μL, and the diluted proteasome solution is added to a 384-well fluorescence microplate, 4 μL each. […] A 360 nm/460 nm fluorescence microplate reader (BMG LABTECH POLARstar OPTIMA Microplate Reader) is used to test the fluorescence value.
The fluorescence values of the products obtained under the action of the drugs of different concentrations after subtracting the substrate are calculated. The IC50 concentration of the drug to inhibit the proteasome is calculated by the GraphPad Prism software.

The subject of the next data set is RPMI8226. In words: Cell strain inhibition activity (Promega single solution cell proliferation test kit), RPMI8226. It is filed as cell-based. As to conditions: Homo sapiens, RPMI-8226; RPMI8226 cells, 24 h incubation with drug; read-out: IC50 concentration (nM) of the drugs to cytotoxicity, RPMI8226. The protocol:
as §1, §2, §3, §4

Data set [2] deals with CD138+ cells selected from the patients with multiple myeloma. In words: Primary cytotoxicity, CD138+ cells from patients with multiple myeloma. It is filed as cell-based. The conditions noted are these: Homo sapiens. As to the method:
(§5) In the present invention, blood cells from patients with multiple myeloma and blood cells from healthy volunteers are used to test the toxicity of candidate compounds. The test solution is a single solution cell proliferation test kit from Promega company. The cells used are CD138+ cells selected from the patients with multiple myeloma and monocytes from the blood of the healthy volunteers. The experimental system is 110 μL, containing 90 μL of cell suspension, 10 μL of test solution, and 10 μL of drug (inhibitor). The final concentration is 4.54×10^−8 M 1.77×10^−9 M, the last concentration is 0 M, the actual preparation concentration is 5×10^−7 M-1.95×10^−8 M, and the last concentration is 0 M. The specific experiment process is as follows:
(§6) After the cells are counted separately, dilution and preparation are performed so that the number of CD138+ cells is 1×10^4 cells/well, and the number of monocytes is 1×10^4 cells/well.
as §3, §4

Data set [3] in a line: Primary cytotoxicity, monocytes from healthy volunteers. It is filed as cell-based. The conditions noted are these: human, primary blood monocytes from a healthy volunteer, 24 h incubation with drug. The protocol:
as §5, §6, §3, §4

The mark [4] stands for this setting: Patient 1, 24 h incubation with drug, read-out: IC50 concentration (nM) of the drugs to cytotoxicity, Patient 1.
Setting [5] is: Patient 2, 24 h incubation with drug, read-out: IC50 concentration (nM) of the drugs to cytotoxicity, Patient 2.
Where [6] appears, read: Healthy volunteer 3 (first line, r4), read-out: IC50 concentration (nM) of the drugs to cytotoxicity, Healthy volunteer 3.
The mark [7] stands for this setting: Healthy volunteer 3 (second line, r5), read-out: IC50 concentration (nM) of the drugs to cytotoxicity, Healthy volunteer 3 (second line).

Consider `COC[C@H](NC(=O)c1cc(C)on1)C(=O)N[C@H](CSC)C(=O)N[C@@H](CC(C)C)C(=O)[C@@]1(C)CO1` [Compound 31, N-5-methylisoxazolyl-3-formyl-O-methyl-L-seryl-S-methyl-L-cysteinyl-L-leucyl-methyloxirane], for which the melting point is 70.2 to 72.7 °C. Compound `COC[C@H](NC(=O)c1cnccn1)C(=O)N[C@H](CSC)C(=O)N[C@@H](CC(C)C)C(=O)[C@@]1(C)CO1` [Compound 32, N-pyrazinyl-2-formyl-O-methyl-L-seryl-S-methyl-L-cysteinyl-L-leucyl-methyloxirane] had a melting point of 50 to 51 °C. Further, the IC50 with U266B1 worked out at 13700 nM. `COC[C@H](NC(=O)c1cc(Cl)ccc1Cl)C(=O)N[C@H](CSC)C(=O)N[C@@H](Cc1ccccc1)C(=O)[C@@]1(C)CO1` [Compound 33, N-2,5-dichlorophenyl-2-formyl-O-methyl-L-seryl-S-methyl-L-cysteinyl-L-phenylalanyl-methyloxirane]: the melting point lay within 50.7 to 52.3 °C. The compound `COC[C@H](NC(=O)c1cnccn1)C(=O)N[C@H](CSC)C(=O)N[C@@H](Cc1ccccc1)C(=O)[C@@]1(C)CO1` [Compound 35, N-pyrazinyl-2-formyl-O-methyl-L-seryl-S-methyl-L-cysteinyl-L-phenylalanyl-methyloxirane] gave a melting point of 46.1 to 47.6 °C.

For `COC[C@H](NC(=O)[C@@H](CSC)NC(=O)c1cc(Cl)ccc1Cl)C(=O)N[C@@H](CC(C)C)C(=O)[C@@]1(C)CO1` [Compound 36, N-2,5-dichlorophenyl-2-formyl-S-methyl-L-cysteinyl-O-methyl-L-seryl-L-leucyl-methyloxirane], the melting point was in the range of 59.8 to 60.3 °C. For `COC[C@H](NC(=O)[C@@H](CSC)NC(=O)c1cc(C)on1)C(=O)N[C@@H](CC(C)C)C(=O)[C@@]1(C)CO1` [Compound 37, N-5-methylisoxazolyl-3-formyl-S-methyl-L-cysteinyl-O-methyl-L-seryl-L-leucyl-methyloxirane], the melting point was 49.5 to 51.8 °C. `COC[C@H](NC(=O)[C@@H](CSC)NC(=O)c1cnccn1)C(=O)N[C@@H](CC(C)C)C(=O)[C@@]1(C)CO1` [Compound 38, N-pyrazinyl-2-formyl-S-methyl-L-cysteinyl-O-methyl-L-seryl-L-leucyl-methyloxirane]: the melting point lay in the range of 59.6 to 61.2 °C. The same compound returned an IC50 in data set [1] of over 2 µM. In turn, `COC[C@H](NC(=O)[C@@H](CSC)NC(=O)c1cc(Cl)ccc1Cl)C(=O)N[C@@H](Cc1ccccc1)C(=O)[C@@]1(C)CO1` [Compound 39, N-2,5-dichlorophenyl-2-formyl-S-methyl-L-cysteinyl-O-methyl-L-seryl-L-phenylalanyl-methyloxirane] registered a melting point of 51.2 to 52.7 °C. `COC[C@H](NC(=O)[C@@H](CSC)NC(=O)c1cnccn1)C(=O)N[C@@H](Cc1ccccc1)C(=O)[C@@]1(C)CO1` [Compound 41, N-pyrazinyl-2-formyl-S-methyl-L-cysteinyl-O-methyl-L-seryl-L-phenylalanyl-methyloxirane] displayed a melting point of 49.7 to 51.2 °C. The IC50 in the data set on U266B1 stood at 160 nM. The IC50 in the data set on RPMI8226 turned out to be 55.3 nM. As for `CSC[C@@H](NC(=O)c1cc(Cl)ccc1Cl)C(=O)N[C@H](CSC)C(=O)N[C@@H](CC(C)C)C(=O)[C@@]1(C)CO1` [Compound 42, N-2,5-dichlorophenyl-2-formyl-S-methyl-L-cysteinyl-S-methyl-L-cysteinyl-L-leucyl-methyloxirane], the melting point lay within 163.1 to 164.5 °C. The same measure, in the same setting: the result for `CSC[C@@H](NC(=O)c1cnc(C)s1)C(=O)N[C@H](CSC)C(=O)N[C@@H](CC(C)C)C(=O)[C@@]1(C)CO1` [Compound 45, N-2-methylthiazolyl-5-formyl-S-methyl-L-cysteinyl-S-methyl-L-cysteinyl-L-leucyl-methyloxirane] reads 150 to 151 °C; that for `CSC[C@@H](NC(=O)c1cc(Cl)ccc1Cl)C(=O)N[C@H](CSC)C(=O)N[C@@H](Cc1ccccc1)C(=O)[C@@]1(C)CO1` [Compound 46, N-2,5-dichlorophenyl-2-formyl-S-methyl-L-cysteinyl-S-methyl-L-cysteinyl-L-phenylalanyl-methyloxirane], 150 to 151 °C. On the same count and under the same terms, as for `CSC[C@@H](NC(=O)c1cc(C)on1)C(=O)N[C@H](CSC)C(=O)N[C@@H](Cc1ccccc1)C(=O)[C@@]1(C)CO1` [Compound 47, N-5-methylisoxazolyl-3-formyl-S-methyl-L-cysteinyl-S-methyl-L-cysteinyl-L-phenylalanyl-methyloxirane], the figure is 149 to 150 °C.

Turning to `CSC[C@@H](NC(=O)c1cnccn1)C(=O)N[C@H](CSC)C(=O)N[C@@H](Cc1ccccc1)C(=O)[C@@]1(C)CO1` [Compound 48, N-pyrazinyl-2-formyl-S-methyl-L-cysteinyl-S-methyl-L-cysteinyl-L-phenylalanyl-methyloxirane], in data set [1], the IC50 is over 2 µM. `CSC[C@@H](NC(=O)c1cnc(C)s1)C(=O)N[C@H](CSC)C(=O)N[C@@H](Cc1ccccc1)C(=O)[C@@]1(C)CO1` [Compound 49, N-2-methylthiazolyl-5-formyl-S-methyl-L-cysteinyl-S-methyl-L-cysteinyl-L-phenylalanyl-methyloxirane] displayed a melting point of 73 to 74 °C. With `COC[C@H](NC(=O)c1cc(C)on1)C(=O)NCC(=O)N[C@@H](CC(C)C)C(=O)[C@@]1(C)CO1` [Compound 50, N-5-methylisoxazolyl-3-formyl-O-methyl-L-seryl-glycyl-L-leucyl-methyloxirane], the melting point is 47.7 to 49.1 °C. For the same compound, the IC50 in data set [2] (setting [4]) worked out at 10 nM. In addition, the IC50 in data set [2] (setting [5]) stood at 11 nM. Further, in data set [3] (setting [6]), the IC50 at 24 h was over 2000 nM. Moreover, the IC50 at 24 h in data set [3] (setting [7]) was over 2000 nM. `COC[C@H](NC(=O)c1cc(C)on1)C(=O)NCC(=O)N[C@@H](Cc1ccccc1)C(=O)[C@@]1(C)CO1` [Compound 51, N-5-methylisoxazolyl-3-formyl-O-methyl-L-seryl-glycyl-L-phenylalanyl-methyloxirane] had a melting point of 54 to 55 °C. Further, the IC50 in data set [2] (setting [4]) is 36 nM. For the same compound, the IC50 in data set [2] (setting [5]) was determined as 52.6 nM. On to `COC[C@H](NC(=O)CNC(=O)c1cc(C)on1)C(=O)N[C@@H](CC(C)C)C(=O)[C@@]1(C)CO1` [Compound 52, N-5-methylisoxazolyl-3-formyl-glycyl-O-methyl-L-seryl-L-leucyl-methyloxirane], for which the IC50 with RPMI8226 was over 100 nM.

In turn, `CSC[C@@H](NC(=O)c1cc(C)on1)C(=O)NCC(=O)N[C@@H](CC(C)C)C(=O)[C@@]1(C)CO1` [Compound 54, N-5-methylisoxazolyl-3-formyl-S-methyl-L-cysteinyl-glycyl-L-leucyl-methyloxirane] came in with a melting point of 58.4 to 59.8 °C. Consider `CSC[C@@H](NC(=O)c1cnc(C)s1)C(=O)NCC(=O)N[C@@H](CC(C)C)C(=O)[C@@]1(C)CO1` [Compound 56, N-2-methylthiazolyl-5-formyl-S-methyl-L-cysteinyl-glycyl-L-leucyl-methyloxirane], for which the IC50 in the data set with RPMI8226 was over 100 nM. `COC[C@H](NC(=O)c1cnc(C)s1)C(=O)N[C@@H](COC)C(=O)N[C@@H](Cc1ccccc1)C(=O)[C@@]1(C)CO1` [Oprozomib, reference compound]: the IC50 in data set [2] (setting [4]) amounted to 53 nM; in data set [2] (setting [5]), 70.9 nM. Besides, the IC50 at 24 h was 598 nM in data set [3] (setting [6]) and 807 nM in data set [3] (setting [7]).
